Test results from ChEMBL document CHEMBL5291721, “A preclinical secondary pharmacology resource illuminates target-adverse drug reaction associations of marketed drugs” (Nat Commun, 2023).

Experiments:
[1] = biological target: T1, Alpha-2B adrenergic receptor (Homo sapiens, UniProt P18089)
T1 sequence (P18089 whole entry): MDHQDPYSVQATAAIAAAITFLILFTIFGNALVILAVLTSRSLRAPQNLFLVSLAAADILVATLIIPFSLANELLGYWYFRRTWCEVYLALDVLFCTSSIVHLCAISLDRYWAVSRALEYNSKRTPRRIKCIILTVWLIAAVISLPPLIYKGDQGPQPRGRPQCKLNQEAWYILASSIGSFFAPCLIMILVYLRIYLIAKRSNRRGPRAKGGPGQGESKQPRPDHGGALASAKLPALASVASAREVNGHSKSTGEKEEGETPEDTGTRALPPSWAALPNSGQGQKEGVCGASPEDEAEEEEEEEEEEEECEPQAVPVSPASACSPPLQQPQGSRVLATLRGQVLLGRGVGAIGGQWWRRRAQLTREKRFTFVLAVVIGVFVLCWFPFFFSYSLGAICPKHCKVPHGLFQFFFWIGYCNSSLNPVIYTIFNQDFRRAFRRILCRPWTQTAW

[2] = biological target: T2, Peroxisome proliferator-activated receptor gamma (Homo sapiens, UniProt P37231); assay type: functional
T2 sequence (P37231 whole entry): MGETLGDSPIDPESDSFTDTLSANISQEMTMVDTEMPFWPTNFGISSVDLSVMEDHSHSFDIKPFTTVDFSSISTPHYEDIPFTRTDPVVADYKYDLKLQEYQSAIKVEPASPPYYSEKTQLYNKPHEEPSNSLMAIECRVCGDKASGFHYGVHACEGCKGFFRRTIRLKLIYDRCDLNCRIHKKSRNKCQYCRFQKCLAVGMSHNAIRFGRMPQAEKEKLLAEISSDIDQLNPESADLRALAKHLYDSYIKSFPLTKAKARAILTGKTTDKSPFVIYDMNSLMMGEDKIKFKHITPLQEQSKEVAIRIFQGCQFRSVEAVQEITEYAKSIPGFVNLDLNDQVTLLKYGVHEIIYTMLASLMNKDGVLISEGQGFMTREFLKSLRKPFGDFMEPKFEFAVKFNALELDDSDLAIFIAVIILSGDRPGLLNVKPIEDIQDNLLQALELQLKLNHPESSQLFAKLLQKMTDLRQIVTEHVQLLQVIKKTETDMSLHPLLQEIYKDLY

Histamine H1 receptor = Histamine H1 receptor (Homo sapiens, UniProt P35367)
[3] = biological target: 5-hydroxytryptamine receptor 2A (Homo sapiens, UniProt P28223); assay type: functional, cell-based
[4] = biological target: Gamma-aminobutyric acid receptor subunit alpha-1/alpha-2/beta-2/gamma-2 (Homo sapiens, UniProt P14867+P18507+P47869+P47870); assay type: functional, cell-based
[5] = biological target: Muscarinic acetylcholine receptor M3 (Homo sapiens, UniProt P20309)
Estrogen receptor = biological target: T3, Estrogen receptor (Homo sapiens, UniProt P03372)
T3 sequence (P03372 whole entry): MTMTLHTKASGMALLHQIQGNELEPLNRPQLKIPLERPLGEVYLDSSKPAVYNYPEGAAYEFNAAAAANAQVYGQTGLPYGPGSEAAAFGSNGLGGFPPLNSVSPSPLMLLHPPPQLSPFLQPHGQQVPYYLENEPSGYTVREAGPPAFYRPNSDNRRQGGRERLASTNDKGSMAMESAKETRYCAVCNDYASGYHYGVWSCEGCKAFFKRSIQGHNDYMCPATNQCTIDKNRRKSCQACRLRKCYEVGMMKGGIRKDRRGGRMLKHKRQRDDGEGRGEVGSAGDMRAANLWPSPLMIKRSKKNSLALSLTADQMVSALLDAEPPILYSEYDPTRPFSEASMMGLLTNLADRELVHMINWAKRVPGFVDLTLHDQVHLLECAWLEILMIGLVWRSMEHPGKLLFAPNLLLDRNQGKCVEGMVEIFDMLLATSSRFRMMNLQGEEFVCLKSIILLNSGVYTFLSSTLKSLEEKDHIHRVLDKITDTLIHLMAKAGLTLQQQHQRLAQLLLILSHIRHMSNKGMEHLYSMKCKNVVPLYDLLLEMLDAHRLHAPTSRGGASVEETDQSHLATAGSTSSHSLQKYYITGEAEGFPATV

Cannabinoid receptor 1 = Cannabinoid receptor 1 (Homo sapiens, UniProt P21554)
[6] = biological target: T4, Gastric inhibitory polypeptide receptor (Homo sapiens, UniProt P48546)
T4 sequence (P48546 whole entry): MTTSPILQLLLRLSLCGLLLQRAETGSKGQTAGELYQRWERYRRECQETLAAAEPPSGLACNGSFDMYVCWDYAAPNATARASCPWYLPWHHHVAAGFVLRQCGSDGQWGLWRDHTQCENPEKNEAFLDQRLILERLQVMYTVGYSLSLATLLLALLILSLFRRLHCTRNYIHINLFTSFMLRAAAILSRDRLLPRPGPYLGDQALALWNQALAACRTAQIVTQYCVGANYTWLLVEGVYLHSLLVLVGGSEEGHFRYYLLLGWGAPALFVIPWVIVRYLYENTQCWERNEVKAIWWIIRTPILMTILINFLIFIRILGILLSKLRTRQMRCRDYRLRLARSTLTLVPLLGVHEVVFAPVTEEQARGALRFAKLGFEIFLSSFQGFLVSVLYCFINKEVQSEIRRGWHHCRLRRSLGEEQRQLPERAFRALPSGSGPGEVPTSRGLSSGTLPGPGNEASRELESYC

[7] = biological target: T5, Corticotropin-releasing factor receptor 1 (Homo sapiens, UniProt P34998)
T5 sequence (P34998 whole entry): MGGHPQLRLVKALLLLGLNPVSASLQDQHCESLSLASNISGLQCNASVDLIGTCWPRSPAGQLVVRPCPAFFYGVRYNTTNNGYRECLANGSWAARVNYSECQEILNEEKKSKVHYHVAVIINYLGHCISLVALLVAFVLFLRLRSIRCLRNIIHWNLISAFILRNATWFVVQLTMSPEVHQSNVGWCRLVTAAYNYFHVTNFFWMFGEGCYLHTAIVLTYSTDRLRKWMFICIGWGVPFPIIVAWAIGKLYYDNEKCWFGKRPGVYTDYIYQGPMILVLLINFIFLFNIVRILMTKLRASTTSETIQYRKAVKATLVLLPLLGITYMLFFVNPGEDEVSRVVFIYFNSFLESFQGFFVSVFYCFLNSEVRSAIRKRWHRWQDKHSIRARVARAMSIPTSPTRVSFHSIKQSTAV

Melanocortin receptor 4 = Melanocortin receptor 4 (Homo sapiens, UniProt P32245)
[8] = biological target: 5-hydroxytryptamine receptor 2B (Homo sapiens, UniProt P41595)
D(1A) dopamine receptor = D(1A) dopamine receptor (Homo sapiens, UniProt P21728)
Further: assay procedure not described here.

Sequence of D(1A) dopamine receptor (P21728 whole entry): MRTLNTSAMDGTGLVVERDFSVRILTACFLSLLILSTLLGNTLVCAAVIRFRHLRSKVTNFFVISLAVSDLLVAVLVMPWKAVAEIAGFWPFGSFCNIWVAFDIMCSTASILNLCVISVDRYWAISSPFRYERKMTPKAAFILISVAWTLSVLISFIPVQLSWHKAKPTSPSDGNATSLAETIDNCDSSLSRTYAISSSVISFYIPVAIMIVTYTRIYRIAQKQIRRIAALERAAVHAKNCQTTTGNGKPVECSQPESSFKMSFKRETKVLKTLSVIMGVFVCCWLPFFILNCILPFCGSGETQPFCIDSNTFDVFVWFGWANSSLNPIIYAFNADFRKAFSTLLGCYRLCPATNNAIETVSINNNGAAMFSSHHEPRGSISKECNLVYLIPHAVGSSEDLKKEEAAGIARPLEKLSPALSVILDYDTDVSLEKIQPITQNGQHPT
Sequence of Gamma-aminobutyric acid receptor subunit alpha-1/alpha-2/beta-2/gamma-2 (P14867 whole entry): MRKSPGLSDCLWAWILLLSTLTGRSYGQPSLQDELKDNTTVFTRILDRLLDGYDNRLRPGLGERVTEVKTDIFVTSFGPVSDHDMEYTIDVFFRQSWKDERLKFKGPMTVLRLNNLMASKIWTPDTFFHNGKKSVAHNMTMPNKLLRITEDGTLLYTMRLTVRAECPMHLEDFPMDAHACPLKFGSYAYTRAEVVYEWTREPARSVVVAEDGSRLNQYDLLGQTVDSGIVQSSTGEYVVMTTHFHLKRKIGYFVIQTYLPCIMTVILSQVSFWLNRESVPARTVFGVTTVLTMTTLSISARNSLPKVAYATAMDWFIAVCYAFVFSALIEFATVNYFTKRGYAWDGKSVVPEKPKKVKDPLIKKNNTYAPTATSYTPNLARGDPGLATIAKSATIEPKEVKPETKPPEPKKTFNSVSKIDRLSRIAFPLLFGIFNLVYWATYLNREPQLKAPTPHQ
Sequence of Gamma-aminobutyric acid receptor subunit alpha-1/alpha-2/beta-2/gamma-2 (P47870 whole entry): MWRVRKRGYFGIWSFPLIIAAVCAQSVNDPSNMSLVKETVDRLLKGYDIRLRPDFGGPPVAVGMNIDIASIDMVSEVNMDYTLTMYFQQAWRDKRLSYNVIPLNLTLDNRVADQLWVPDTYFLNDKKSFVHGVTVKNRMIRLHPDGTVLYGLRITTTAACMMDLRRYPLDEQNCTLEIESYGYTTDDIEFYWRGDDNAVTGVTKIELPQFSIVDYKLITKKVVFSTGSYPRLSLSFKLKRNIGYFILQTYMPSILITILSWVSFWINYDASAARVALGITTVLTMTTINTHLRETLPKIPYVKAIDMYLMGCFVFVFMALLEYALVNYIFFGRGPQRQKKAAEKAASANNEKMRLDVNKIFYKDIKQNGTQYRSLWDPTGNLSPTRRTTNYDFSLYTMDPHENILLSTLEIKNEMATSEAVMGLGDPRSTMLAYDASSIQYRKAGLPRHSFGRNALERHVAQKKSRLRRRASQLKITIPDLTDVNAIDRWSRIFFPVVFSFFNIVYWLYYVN
Sequence of Gamma-aminobutyric acid receptor subunit alpha-1/alpha-2/beta-2/gamma-2 (P18507 whole entry): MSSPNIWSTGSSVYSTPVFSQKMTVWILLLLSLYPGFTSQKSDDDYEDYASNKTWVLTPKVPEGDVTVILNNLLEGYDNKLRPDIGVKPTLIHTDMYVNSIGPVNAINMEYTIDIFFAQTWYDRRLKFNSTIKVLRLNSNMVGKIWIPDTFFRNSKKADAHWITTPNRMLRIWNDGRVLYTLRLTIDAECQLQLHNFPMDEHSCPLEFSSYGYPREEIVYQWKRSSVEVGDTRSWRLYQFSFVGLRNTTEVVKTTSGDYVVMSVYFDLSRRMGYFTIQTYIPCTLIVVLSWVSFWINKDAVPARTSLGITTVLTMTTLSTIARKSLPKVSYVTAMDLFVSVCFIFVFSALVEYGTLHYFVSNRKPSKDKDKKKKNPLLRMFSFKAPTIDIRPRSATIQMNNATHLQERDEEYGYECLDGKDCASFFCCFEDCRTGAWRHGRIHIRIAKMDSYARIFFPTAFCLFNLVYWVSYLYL
Sequence of Gamma-aminobutyric acid receptor subunit alpha-1/alpha-2/beta-2/gamma-2 (P47869 whole entry): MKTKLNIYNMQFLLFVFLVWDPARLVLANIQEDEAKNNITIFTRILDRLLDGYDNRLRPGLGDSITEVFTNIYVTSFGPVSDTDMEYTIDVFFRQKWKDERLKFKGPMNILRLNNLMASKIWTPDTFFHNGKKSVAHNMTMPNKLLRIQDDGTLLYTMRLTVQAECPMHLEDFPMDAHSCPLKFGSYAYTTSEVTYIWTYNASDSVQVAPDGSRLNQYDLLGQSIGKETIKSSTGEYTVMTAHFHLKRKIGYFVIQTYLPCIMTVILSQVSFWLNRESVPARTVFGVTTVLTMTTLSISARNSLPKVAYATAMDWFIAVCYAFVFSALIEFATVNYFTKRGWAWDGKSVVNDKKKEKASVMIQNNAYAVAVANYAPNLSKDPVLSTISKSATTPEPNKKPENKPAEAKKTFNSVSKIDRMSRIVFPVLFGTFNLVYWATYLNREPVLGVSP
Sequence of Muscarinic acetylcholine receptor M3 (P20309 whole entry): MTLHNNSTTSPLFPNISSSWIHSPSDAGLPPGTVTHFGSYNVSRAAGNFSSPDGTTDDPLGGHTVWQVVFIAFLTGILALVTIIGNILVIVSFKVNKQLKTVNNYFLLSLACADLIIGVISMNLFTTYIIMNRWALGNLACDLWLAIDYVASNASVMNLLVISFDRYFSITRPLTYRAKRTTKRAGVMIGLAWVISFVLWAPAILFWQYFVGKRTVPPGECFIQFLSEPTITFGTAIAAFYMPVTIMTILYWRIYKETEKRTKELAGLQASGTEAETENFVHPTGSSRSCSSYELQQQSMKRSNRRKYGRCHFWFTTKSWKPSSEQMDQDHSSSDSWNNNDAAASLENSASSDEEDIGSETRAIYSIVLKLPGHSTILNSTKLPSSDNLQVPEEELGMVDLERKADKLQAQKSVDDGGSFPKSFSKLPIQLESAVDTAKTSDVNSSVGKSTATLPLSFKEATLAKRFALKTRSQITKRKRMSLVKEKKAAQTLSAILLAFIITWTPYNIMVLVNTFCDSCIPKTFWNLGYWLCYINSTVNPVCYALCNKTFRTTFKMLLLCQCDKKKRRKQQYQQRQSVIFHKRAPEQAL
Sequence of Melanocortin receptor 4 (P32245 whole entry): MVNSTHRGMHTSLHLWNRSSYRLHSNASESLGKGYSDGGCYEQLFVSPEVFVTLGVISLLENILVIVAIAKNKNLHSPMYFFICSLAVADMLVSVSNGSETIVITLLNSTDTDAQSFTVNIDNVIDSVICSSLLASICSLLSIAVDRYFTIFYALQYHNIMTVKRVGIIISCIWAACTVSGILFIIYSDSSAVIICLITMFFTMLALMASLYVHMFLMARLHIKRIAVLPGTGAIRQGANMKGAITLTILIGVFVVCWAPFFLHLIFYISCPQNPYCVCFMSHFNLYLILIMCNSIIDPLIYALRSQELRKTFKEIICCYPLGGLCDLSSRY
Sequence of 5-hydroxytryptamine receptor 2B (P41595 whole entry): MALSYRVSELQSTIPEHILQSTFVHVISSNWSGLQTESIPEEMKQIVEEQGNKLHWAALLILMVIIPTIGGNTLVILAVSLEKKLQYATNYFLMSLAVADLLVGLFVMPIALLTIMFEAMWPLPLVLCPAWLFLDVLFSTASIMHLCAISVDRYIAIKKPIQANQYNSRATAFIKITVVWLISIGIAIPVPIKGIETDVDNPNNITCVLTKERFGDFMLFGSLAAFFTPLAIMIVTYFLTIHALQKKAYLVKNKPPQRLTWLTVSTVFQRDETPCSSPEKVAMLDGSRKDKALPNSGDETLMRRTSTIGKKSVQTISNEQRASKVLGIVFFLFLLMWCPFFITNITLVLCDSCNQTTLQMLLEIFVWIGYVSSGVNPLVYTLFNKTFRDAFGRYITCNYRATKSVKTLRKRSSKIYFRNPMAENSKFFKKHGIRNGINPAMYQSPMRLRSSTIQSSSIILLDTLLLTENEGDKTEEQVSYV
Sequence of Histamine H1 receptor (P35367 whole entry): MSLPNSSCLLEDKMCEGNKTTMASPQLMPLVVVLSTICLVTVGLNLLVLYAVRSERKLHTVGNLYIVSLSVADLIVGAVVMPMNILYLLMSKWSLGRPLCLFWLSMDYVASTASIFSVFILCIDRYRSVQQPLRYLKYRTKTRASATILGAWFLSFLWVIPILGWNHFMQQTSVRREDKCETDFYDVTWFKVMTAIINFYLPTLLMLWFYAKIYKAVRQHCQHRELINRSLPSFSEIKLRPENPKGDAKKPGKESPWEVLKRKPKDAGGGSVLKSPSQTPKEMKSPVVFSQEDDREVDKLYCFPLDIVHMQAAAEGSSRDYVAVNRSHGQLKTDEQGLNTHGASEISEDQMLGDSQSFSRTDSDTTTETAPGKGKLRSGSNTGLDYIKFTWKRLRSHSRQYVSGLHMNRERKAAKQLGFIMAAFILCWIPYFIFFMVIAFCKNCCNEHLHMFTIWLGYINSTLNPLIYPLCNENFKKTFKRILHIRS
Sequence of Cannabinoid receptor 1 (P21554 whole entry): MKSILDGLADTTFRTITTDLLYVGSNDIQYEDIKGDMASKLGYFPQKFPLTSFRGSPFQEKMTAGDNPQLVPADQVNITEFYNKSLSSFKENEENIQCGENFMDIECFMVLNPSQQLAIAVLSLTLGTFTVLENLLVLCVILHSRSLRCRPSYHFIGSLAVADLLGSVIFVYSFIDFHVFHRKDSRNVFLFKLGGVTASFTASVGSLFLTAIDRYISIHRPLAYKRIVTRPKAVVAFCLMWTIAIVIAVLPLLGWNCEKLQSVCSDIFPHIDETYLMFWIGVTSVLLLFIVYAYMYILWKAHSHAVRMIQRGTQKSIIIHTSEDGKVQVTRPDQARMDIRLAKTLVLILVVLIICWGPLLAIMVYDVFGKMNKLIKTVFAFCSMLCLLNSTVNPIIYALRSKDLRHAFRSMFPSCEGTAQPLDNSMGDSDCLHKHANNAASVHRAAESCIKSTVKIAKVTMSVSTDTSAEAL

Compound | AC50 [1] [µM] | AC50 [2] [µM] | AC50 (Histamine H1 receptor) [µM] | AC50 [3] [µM] | AC50 [4] [µM] | AC50 [5] [µM] | AC50 (Estrogen receptor) [µM] | AC50 (Cannabinoid receptor 1) [µM] | AC50 [6] [µM] | AC50 [7] [µM] | AC50 (Melanocortin receptor 4) [µM] | AC50 [8] [µM] | AC50 (D(1A) dopamine receptor) [µM]
CC(=N)N1CC[C@H](SC2=C(C(=O)O)N3C(=O)[C@H]([C@@H](C)O)[C@H]3C2)C1 | 300 | > 300 | > 300 | > 300 | > 2400 | 290 | – | – | – | – | – | – | –
CO/N=C(\C(=O)N[C@@H]1C(=O)N2C(C(=O)O)=C(COC(N)=O)CS[C@H]12)c1ccco1 [CEFUROXIME] | > 30 | > 30 | > 30 | > 30 | > 30 | > 30 | – | – | – | – | – | – | –
COC(=O)[C@H](c1ccccc1Cl)N1CCc2sccc2C1 [CLOPIDOGREL] | – | > 30 | – | – | > 30 | – | > 30 | > 30 | > 30 | > 30 | > 30 | > 10 | > 10
C#Cc1cccc(Nc2ncnc3cc(OCCOC)c(OCCOC)cc23)c1 [ERLOTINIB] | > 30 | > 30 | > 30 | – | > 30 | > 30 | – | – | – | – | – | – | –
CCC(=O)O[C@@H](O[P@](=O)(CCCCc1ccccc1)CC(=O)N1C[C@H](C2CCCCC2)C[C@H]1C(=O)O)C(C)C [FOSINOPRIL] | > 30 | – | > 30 | > 30 | > 30 | > 30 | – | – | – | – | – | – | –
C[C@H]1Oc2cc(cnc2N)-c2c(nn(C)c2C#N)CN(C)C(=O)c2ccc(F)cc21 [LORLATINIB] | > 30 | > 30 | > 30 | > 30 | > 30 | > 30 | – | – | – | – | – | – | –
CN(C)c1cc(CNCC(C)(C)C)c(O)c2c1C[C@H]1C[C@H]3[C@H](N(C)C)C(O)=C(C(N)=O)C(=O)[C@@]3(O)C(O)=C1C2=O [OMADACYCLINE] | 30 | > 30 | > 30 | > 30 | > 30 | > 30 | > 30 | – | – | – | – | – | –
CNC[C@H](O)c1cccc(O)c1 [PHENYLEPHRINE] | – | – | > 10 | > 30 | – | > 30 | – | > 10 | > 30 | > 30 | > 30 | > 10 | > 10
O=C1NC(=O)C(c2ccccc2)(c2ccccc2)N1 [PHENYTOIN] | – | > 30 | – | – | – | – | – | > 10 | > 30 | > 30 | > 30 | – | –
CC(C)C[C@H](CN)CC(=O)O [PREGABALIN] | > 30 | > 30 | > 30 | > 30 | > 30 | > 30 | > 30 | > 30 | > 30 | > 30 | > 30 | – | –
CCOc1cc(CC(=O)N[C@@H](CC(C)C)c2ccccc2N2CCCCC2)ccc1C(=O)O [REPAGLINIDE] | > 30 | > 30 | > 30 | > 30 | > 30 | > 30 | – | – | – | – | – | – | –
CCCN(CCC)CCc1cccc2c1CC(=O)N2 [ROPINIROLE] | – | > 30 | 14 | 12 | > 30 | > 30 | – | > 10 | > 30 | > 30 | > 30 | 27 | > 10
CCCN(CCc1cccs1)[C@H]1CCc2c(O)cccc2C1 [ROTIGOTINE] | 0.13 | > 30 | – | 0.46 | > 30 | > 30 | – | – | – | – | – | – | –
CC(=O)S[C@@H]1CC2=CC(=O)CC[C@]2(C)[C@H]2CC[C@@]3(C)[C@@H](CC[C@@]34CCC(=O)O4)[C@H]12 [SPIRONOLACTONE] | – | > 30 | – | – | > 30 | – | > 30 | > 10 | > 30 | > 30 | > 30 | > 10 | > 10
CN1CCN(CCCN2c3ccccc3Sc3ccc(S(=O)(=O)N(C)C)cc32)CC1 [THIOPROPERAZINE] | 0.15 | – | 0.33 | > 30 | > 30 | 18 | – | – | – | – | – | – | –
